Measured values as given in article PMC13492380, “Dissecting Structural and Functional Determinants of Microtubules Stabilization through Guided Chemical Modulation” (Journal of Medicinal Chemistry, 2026).

Test system: taxane site of assembled cross-linked MTs
Assay: Displacement of FTX2 from the taxane site (fluorescence polarization)
Format: binding, calf
Details: for incremental binding free energy (ΔΔG), PTX-to-derivative modification: 35 °C; for ΔH 0 app: Van't Hoff analysis, 26–42 °C; for ΔG 0 app at 26 °C: from binding constant, −RT Ln Ka; for ΔS 0 app: slope of ΔG0app versus T
Procedure: Purified calf brain tubulin and chemicals were obtained as previously described. Tau-mCherry was expressed and purified as described previously. Human Kif5B-EGFP (amino acids 1-905), containing a C terminal fluorescent-tag followed by a 3C protease cleavage site and a 6 × His-tag was expressed and purified as in with some modifications. Prior to purification, cells were resuspended in 1:1 ratio of lysis buffer (30 mM HEPES pH 7.5, 300 mM NaCl, 0.5 mM ATP, 5% glycerol, 20 mM imidazole, […]) supplemented with 1× Protease inhibitor cocktail and benzonase to the final concentration of 25 units/ml. Cells were homogenized by repeated pipetting. Cells were lysed by spinning for 45 min at 40,000 rpm in 45 Ti fixed-angle rotor (Beckman Coulter) at 4 °C. The supernatant was incubated with pre-equilibrated HisPUR NiNTA agarose resin (Thermo Fisher Scientific) for 1 h in a tightly closed gravity-flow column (Thermo Fisher Scientific) at 4 °C by slowly rotating. Subsequently, the resin was washed once lysis buffer and then with buffer B (30 mM HEPES pH 7.5, 300 mM NaCl, 0.5 mM ATP, 5% glycerol, 30 mM imidazole, […]). The protein was eluted from the resin after an overnight cleavage of the 6 × His-tag with 3C HRV protease in lysis buffer at 4 °C. The eluted protein was further purified via size exclusion chromatography on Superdex 200 10/300 GL column equilibrated in exclusion buffer (30 mM HEPES pH 7.5, 300 mM NaCl, 0.5 mM ATP, 5% glycerol, […]). Peak fractions were analyzed via SDS-PAGE, pooled and the protein was concentrated with Amicon Ultra-15 Centrifugal Filter tubes (Millipore). Purified proteins were aliquoted, snap-frozen in liquid N2, and stored at −80 °C.
The equilibrium binding constant of 1a and 1b to the taxane site of assembled MTs were determined by the displacement of FTX2 from the taxane site in cross-linked MTs. The displacement isotherm of each ligand was measured at least three times in two different plates with a fluorescence polarization microplate reader, as described. A mixture of 50 nM taxane binding sites and 50 nM FTX2 in GAB buffer was sampled in a 96-well plate. […] After mixing the samples for 10 min by shaking at 250 rpm, they were incubated 20 min at the desired temperatures (26, 35 or 42 °C) and their anisotropies were measured using a Spark Tecan plater reader in fluorescence polarization at emission of 535 nm and excitation of 485 nm. A sample containing 50 nM taxane binding sites was employed as blank, and a 50 nM solution of FTX2 in GAB, 0.1 mM GTP was employed as anisotropy standard. G factor was calculated as a mean over several cells in different conditions. The molar saturation fraction, X b , of the probe for each competitor concentration is calculated from the polarization values measured, P. Measurements of the polarization of FTX2 completely displaced (P 0 ) and, in absence of the competitor ligand (P sat), are required for data processing. The binding of FTX2 in the presence of the competitor ligand (X b = (P–P 0 /P sat – P 0 ) · X sat) was calculated and best fitted to the equilibrium binding constant of the competitor assuming unitary stoichiometry and the binding constant of the reference ligand (FTX2) with a PC program (Equigra v5).
Once the equilibrium binding constants are measured at different temperatures, the standard free energy of binding at a given temperature is calculated from the binding constant as ΔG 0app = −RT Ln K a, the standard enthalpy of the binding reaction is calculated from the representation of Ln K a versus 1/T (Van’t Hoff representation), and the slope of this representation multiplied by −R is equal to −ΔH 0app. The standard entropy of binding to ΔS 0app is calculated from the slope of the linear regression of ΔG 0app versus T.

SMILES	fold lower binding constant than PTX [fold]	incremental binding free energy (ΔΔG), PTX-to-derivative modification [kJ mol^–1]	ΔH 0 app	ΔG 0 app at 26 °C	ΔS 0 app
CC(=O)OC1C(=O)C2(C)C(OC(=O)CCCCC(=O)OC3CCc4ccccc43)CC3OCC3(OC(C)=O)C2C(OC(=O)c2ccccc2)C2(O)CC(OC(=O)C(O)C(NC(=O)c3ccccc3)c3ccccc3)C(C)=C1C2(C)C (centres unmarked) [1a, 7-O-(6″-O-(2‴,3‴-Dihydroinden-1‴-yl)hexanedioyl) Paclitaxel]	~100	9.8	–24 ± 4 kJ mol^–1	–31.9 ± 0.1 kJ mol^–1	–27 ± 5 J mol ^aK^–1
COc1ccc2c(c1)CC(NC(=O)CCCCCCCC(=O)OC1CC3OCC3(OC(C)=O)C3C(OC(=O)c4ccccc4)C4(O)CC(OC(=O)C(O)C(NC(=O)c5ccccc5)c5ccccc5)C(C)=C(C(OC(C)=O)C(=O)C13C)C4(C)C)CC2 [1b, 7-O-((S)-9″-(7‴-Methoxy-1‴,2‴,3‴,4‴-tetrahydronaphthalen-2‴-yl)amino) −9″-oxononanoyl) Paclitaxel]	~100	12.8	–35 ± 7 kJ mol^–1	–28.9 ± 0.3 kJ mol^–1	20 ± 5 J mol ^aK^–1
CC(=O)O[C@H]1C(=O)[C@]2(C)[C@@H](OC(=O)[C@H](C)NC(=O)c3ccc(-c4c5cc(F)c(=O)cc-5oc5cc(O)c(F)cc45)c(C(=O)O)c3)C[C@H]3OC[C@@]3(OC(C)=O)[C@H]2[C@H](OC(=O)c2ccccc2)[C@]2(O)C[C@H](OC(=O)[C@H](O)[C@@H](NC(=O)c3ccccc3)c3ccccc3)C(C)=C1C2(C)C [FTX2, Flutax2]		−0.3			
